Experimental data published in patent publication US8927500B2, “Peptidomimetic macrocycles” (Aileron Therapeutics, Inc., priority 2012, dated 2015).
pIC50, pKi: −log10 of the molar value. Where a SMILES comes first, the peptide text is derived from it. Bridges are numbered along the chain shown (N, C = ends). [ ]: non-standard residue; d: D form. R8 = C=CCCCCCC[C@@](C)(N)C(=O)O; S5 = C=CCCC[C@](C)(N)C(=O)O

Key:
[1] = Circular dichroism (CD) analysis of alpha-helicity; assay type: physicochemical; conditions: for Molar Ellipticity 50% TFE (222 in 50% TFE): CD buffer with 50% TFE; for Molar Ellipticity 50% TFE (222 in 50% TFE) / Molar Ellipticity Benign (222 in 0% TFE): 222 nm, 4° C.; for Molar Ellipticity Benign (222 in 0% TFE): benign CD buffer pH 2, 0% TFE; for % Helix benign compared to 50% TFE parent (CD): benign buffer; for Molar Ellipticity TFE-Molar Ellipticity Benign: difference 50% TFE minus benign
Experimental: To assay the helicity of peptidomimetic macrocycles, the compounds are dissolved in an aqueous solution (e.g. 50 mM potassium phosphate solution at pH 7, or distilled H2O, to concentrations of 25-50 μM). Circular dichroism (CD) spectra are obtained on a spectropolarimeter (e.g., Jasco J-710) using standard measurement parameters (e.g. temperature, 20° C.; wavelength, 190-260 nm; step resolution, 0.5 nm; speed, 20 nm/sec; accumulations, 10; response, 1 sec; bandwidth, 1 nm; path length, 0.1 cm). […] A Peltier temperature controller was used to maintain temperature control of the optical cell. Results are expressed as mean molar ellipticity [0] […] Peptide concentrations were determined by amino acid analysis. Stock solutions of peptides were prepared in benign CD buffer (20 mM phosphoric acid, pH 2). The stocks were used to prepare peptide solutions of 0.05 mg/ml in either benign CD buffer or CD buffer with 50% trifluoroethanol (TFE) for analyses in a 10 mm pathlength cell. […] The average of six scans was reported.

MDM2 = MDM2 (Homo sapiens, UniProt Q00987); experiment: Competitive fluorescence polarization assay for MDM2; assay type: binding; conditions: competitive FP assay, MDM2; for pIC50: read-out: IC50 (MDM2); for pKi: read-out: Ki (MDM2)
Sequence of MDM2 (Q00987 1-125): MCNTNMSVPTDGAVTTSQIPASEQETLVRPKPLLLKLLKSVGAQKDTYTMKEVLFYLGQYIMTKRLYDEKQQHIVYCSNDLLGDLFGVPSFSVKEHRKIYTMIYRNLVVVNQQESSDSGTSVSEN

MDMX = target: T1, MDMX (Homo sapiens, UniProt O15151); experiment: Competitive fluorescence polarization assay for MDMX; assay type: binding; conditions: competitive FP assay; for pIC50: read-out: IC50 (MDMX); for pKi: read-out: Ki (MDMX)
T1 sequence (O15151 1-125): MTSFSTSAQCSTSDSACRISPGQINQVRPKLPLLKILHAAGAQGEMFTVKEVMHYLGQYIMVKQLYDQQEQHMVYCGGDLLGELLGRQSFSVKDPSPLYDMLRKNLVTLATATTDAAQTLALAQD
Experimental: Dilute MDMX (In-house, 40 kD) into FP buffer (High salt buffer-200 mM Nacl, 5 mM CHAPS, pH 7.5.) to make 300 nM (2×) working stock solution. • 2. […] Dilute 1 mM (in 100% DMSO) of FAM labeled linear peptide with DMSO to 100 μM (dilution 1:10). Then, dilute from 100 μM to 10 μM with water (dilution 1:10) and then dilute with FP buffer from 10 μM to 40 nM (dilution 1:250). This is the working solution which will be a 10 nM concentration in well (dilution 1:4). Keep the diluted FAM labeled peptide in the dark until use. • 4. […] Dilute 10 mM (in 100% DMSO) with DMSO to 5 mM (dilution 1:2). Then, dilute from 5 mM to 500 μM with H2O (dilution 1:10) and then dilute with FP buffer from 500 μM to 20 μM (dilution 1:25). […] Transfer 10 μl of serial diluted unlabeled peptides to each well which is filled with 20 μl of 300 nM of protein. • 7. Add 10 μl of 10 nM (4×) of FAM labeled peptide into each well and incubate for 3 hr to read.

Caspase 3 = Caspase 3 detection assay in SJSA1 cells; assay type: cell-based; conditions: 48 h, Caspase 3 activation over DMSO-treated cells; for caspase 0.3 uM: 0.3 uM peptide; for caspase 3 uM: 3 uM peptide; for caspase 10 uM: 10 uM peptide; for caspase 30 uM: 30 uM peptide; for caspase 1 uM: 1 uM peptide
SJSA-1 cells = experiment: Cell lysis by peptidomimetic macrocycles (LDH release); assay type: cell-based; conditions: 1 h at 37C

SMILES	% Helix 50% TFE compared to 50% TFE parent (CD) [1] [%]	Molar Ellipticity 50% TFE (222 in 50% TFE) [1] [deg cm2 dmol-1]	Molar Ellipticity Benign (222 in 0% TFE) [1] [deg cm2 dmol-1]	% Helix benign compared to 50% TFE parent (CD) [1] [%]	Molar Ellipticity TFE-Molar Ellipticity Benign [1] [deg cm2 dmol-1]	pIC50 (MDM2)	pKi (MDM2)	pIC50 (MDMX)	pKi (MDMX)	caspase 0.3 uM (Caspase 3)	caspase 3 uM (Caspase 3)	caspase 10 uM (Caspase 3)	caspase 30 uM (Caspase 3)	6.25 uM % Lysed cells (1 h LDH) (SJSA-1 cells) [%]	25 uM % Lysed cells (1 h LDH) (SJSA-1 cells) [%]	50 uM % Lysed cells (1 h LDH) (SJSA-1 cells) [%]	caspase 1 uM (Caspase 3)
CC(=O)N[C@@H](CC(C)C)C(=O)N[C@H](C(=O)N[C@@H](Cc1ccccc1)C(=O)N[C@]1(C)CCCCCCC=CCCC[C@@](C)(C(=O)N[C@@H](CO)C(=O)N[C@@H](C)C(=O)N[C@@H](C)C(N)=O)NC(=O)[C@H](CC(C)C)NC(=O)[C@H](CCC(N)=O)NC(=O)[C@H](C)NC(=O)[C@H](Cc2c[nH]c3ccccc23)NC(=O)[C@H](Cc2ccc(O)cc2)NC(=O)[C@H](C)NC1=O)[C@@H](C)O [compound 11]	106.1	−16623.4	−398.2	2.5	–	–	–	–	–	1	5	23	33.5	−2	2	3	–
CC[C@H](C)[C@H](NC(=O)[C@H](C)NC(=O)[C@H](C)NC(=O)[C@]1(C)CCC/C=C/CCCCCC[C@@](C)(NC(=O)[C@H](Cc2ccccc2)NC(=O)[C@@H](NC(=O)[C@H](CC(C)C)NC(C)=O)[C@@H](C)O)C(=O)N[C@@H](C)C(=O)N[C@@H](Cc2ccc(O)cc2)C(=O)N[C@@H](Cc2c[nH]c3ccccc23)C(=O)N[C@@H](C)C(=O)N[C@@H](CCC(N)=O)C(=O)N[C@@H](CC(C)C)C(=O)N1)C(=O)N[C@H](C)C(N)=O [compound 71]	123.7	−17957	−121.2	0.8	−17835.9	7.00 to 8.00	> 8.00	6.00 to 7.00	7.00 to 8.00	0.95	3.68	–	23.52	0	0	0	1.02
CC(=O)N[C@@H](CC(C)C)C(=O)N[C@H](C(=O)N[C@@H](Cc1ccccc1)C(=O)N[C@]1(C)CCCCCCC=CCCC[C@@](C)(C(=O)N[C@@H](C)C(=O)N[C@@H](C)C(=O)N[C@@H](C)C(=O)N[C@@H](C)C(=O)N[C@H](C)C(N)=O)NC(=O)[C@H](CC(C)C)NC(=O)[C@H](CCC(N)=O)NC(=O)[C@H](C)NC(=O)[C@H](Cc2c[nH]c3ccccc23)NC(=O)[C@H](Cc2ccc(O)cc2)NC(=O)[C@H](C)NC1=O)[C@@H](C)O [compound 233]	131.2	−19032.6	−477.9	3.3	−18554.7	–	–	–	–	6	17	22	23	2.5	3.5	6	8

Now from value to compound, other results behind:

% Helix 50% TFE compared to 50% TFE parent (CD) [1] [%]	Molar Ellipticity 50% TFE (222 in 50% TFE) [1] [deg cm2 dmol-1]	Molar Ellipticity Benign (222 in 0% TFE) [1] [deg cm2 dmol-1]	% Helix benign compared to 50% TFE parent (CD) [1] [%]	Molar Ellipticity TFE-Molar Ellipticity Benign [1] [deg cm2 dmol-1]	pIC50 (MDM2)	pKi (MDM2)	pIC50 (MDMX)	pKi (MDMX)	SMILES	caspase 0.3 uM (Caspase 3)	caspase 3 uM (Caspase 3)	caspase 10 uM (Caspase 3)	caspase 30 uM (Caspase 3)	6.25 uM % Lysed cells (1 h LDH) (SJSA-1 cells) [%]	25 uM % Lysed cells (1 h LDH) (SJSA-1 cells) [%]	50 uM % Lysed cells (1 h LDH) (SJSA-1 cells) [%]	caspase 1 uM (Caspase 3)
123.9	−17974	−213.2	1.5	−17760.8	> 8.00	> 8.00	7.00 to 8.00	> 8.00	CC(=O)N[C@@H](CC(C)C)C(=O)N[C@H](C(=O)N[C@@H](Cc1ccccc1)C(=O)N[C@]1(C)CCCCCCC=CCCC[C@@](C)(C(=O)N[C@@H](C)C(=O)N[C@@H](C)C(=O)N[C@@H](C)C(=O)N[C@H](C)C(N)=O)NC(=O)[C@H](CC(C)C)NC(=O)[C@H](CCC(N)=O)NC(=O)[C@H](C)NC(=O)[C@H](Cc2c[nH]c3ccccc23)NC(=O)[C@H](Cc2ccc(O)cc2)NC(=O)[C@H](C)NC1=O)[C@@H](C)O (single isomer, unassigned) [compound 230]	1	2	3	11	0.5	0	3	–
137.3	−19921.4	124	−0.9	−20045.4	7.00 to 8.00	> 8.00	7.00 to 8.00	7.00 to 8.00	CC(=O)N[C@@H](CC(C)C)C(=O)N[C@H](C(=O)N[C@@H](Cc1ccccc1)C(=O)N[C@]1(C)CCCCCCC=CCCC[C@@](C)(C(=O)N[C@@H](CO)C(=O)N[C@@H](C)C(=O)N[C@@H](Cc2ccccc2)C(N)=O)NC(=O)[C@H](CC(C)C)NC(=O)[C@H](CCC(N)=O)NC(=O)[C@H](C)NC(=O)[C@H](Cc2c[nH]c3ccccc23)NC(=O)[C@H](Cc2ccc(O)cc2)NC(=O)[C@H](C)NC1=O)[C@@H](C)O [compound 7] (Ac-LTF[R8]AYWAQL[S5]SAF-NH2; staple 4-11)	0.93	5.08	21.7	23.96	0	0	0	1.4
116.4	−18247.4	−15334.5	97.8	2912.9	7.00 to 8.00	> 8.00	7.00 to 8.00	7.00 to 8.00	CC(=O)N[C@@H](CC(C)C)C(=O)N[C@H](C(=O)N[C@@H](Cc1ccccc1)C(=O)N[C@]1(C)CCCCCCC=CCCC[C@@](C)(C(=O)N[C@@H](Cc2c[nH]cn2)C(=O)N[C@@H](Cc2c[nH]cn2)C(=O)N[C@@H](CC(C)C)C(=O)N[C@H](C)C(N)=O)NC(=O)[C@H](CC(C)C)NC(=O)[C@H](CCC(N)=O)NC(=O)[C@H](C)NC(=O)[C@H](Cc2c[nH]c3ccccc23)NC(=O)[C@H](Cc2ccc(O)cc2)NC(=O)[C@H](C)NC1=O)[C@@H](C)O [compound 43] (Ac-LTF[R8]AYWAQL[S5]HHL[dA]-NH2; staple 4-11)	–	–	–	–	0	−1	−1	–
148.2	−21509.7	−102.6	0.7	–	7.00 to 8.00	> 8.00	6.00 to 7.00	7.00 to 8.00	CCCC[C@H](NC(=O)[C@H](C)NC(=O)[C@H](C)NC(=O)[C@]1(C)CCC/C=C/CCCCCC[C@@](C)(NC(=O)[C@H](Cc2ccccc2)NC(=O)[C@@H](NC(=O)[C@H](CC(C)C)NC(C)=O)[C@@H](C)O)C(=O)N[C@@H](C)C(=O)N[C@@H](Cc2ccc(O)cc2)C(=O)N[C@@H](Cc2c[nH]c3ccccc23)C(=O)N[C@@H](C)C(=O)N[C@@H](CCC(N)=O)C(=O)N[C@@H](CC(C)C)C(=O)N1)C(=O)N[C@@H](C)C(N)=O [compound 69]	4.34	16.39	26.59	26.11	1	−0.5	5	9.51
